Experimental data from ChEMBL document CHEMBL1201862, “PubChem BioAssay data set” (2004).
Active and inactive are the calls of the source.

What was measured:
[1] = control 3'UTR Renilla luciferase suppression, dose response, counter-screen for Shn3 inhibitor project, cell-based, Clone20-Shn3RL, cherry-picked (AID 624133); assay type: functional
[2] = molecular target: T1, Replicative DNA helicase DnaB (Mycobacterium tuberculosis, UniProt P9WMR3); test: DnaB intein splicing inhibitors, dose response, biochemical, cell-free fluorescence (AID 449749); assay type: functional
T1 sequence (P9WMR3 whole entry): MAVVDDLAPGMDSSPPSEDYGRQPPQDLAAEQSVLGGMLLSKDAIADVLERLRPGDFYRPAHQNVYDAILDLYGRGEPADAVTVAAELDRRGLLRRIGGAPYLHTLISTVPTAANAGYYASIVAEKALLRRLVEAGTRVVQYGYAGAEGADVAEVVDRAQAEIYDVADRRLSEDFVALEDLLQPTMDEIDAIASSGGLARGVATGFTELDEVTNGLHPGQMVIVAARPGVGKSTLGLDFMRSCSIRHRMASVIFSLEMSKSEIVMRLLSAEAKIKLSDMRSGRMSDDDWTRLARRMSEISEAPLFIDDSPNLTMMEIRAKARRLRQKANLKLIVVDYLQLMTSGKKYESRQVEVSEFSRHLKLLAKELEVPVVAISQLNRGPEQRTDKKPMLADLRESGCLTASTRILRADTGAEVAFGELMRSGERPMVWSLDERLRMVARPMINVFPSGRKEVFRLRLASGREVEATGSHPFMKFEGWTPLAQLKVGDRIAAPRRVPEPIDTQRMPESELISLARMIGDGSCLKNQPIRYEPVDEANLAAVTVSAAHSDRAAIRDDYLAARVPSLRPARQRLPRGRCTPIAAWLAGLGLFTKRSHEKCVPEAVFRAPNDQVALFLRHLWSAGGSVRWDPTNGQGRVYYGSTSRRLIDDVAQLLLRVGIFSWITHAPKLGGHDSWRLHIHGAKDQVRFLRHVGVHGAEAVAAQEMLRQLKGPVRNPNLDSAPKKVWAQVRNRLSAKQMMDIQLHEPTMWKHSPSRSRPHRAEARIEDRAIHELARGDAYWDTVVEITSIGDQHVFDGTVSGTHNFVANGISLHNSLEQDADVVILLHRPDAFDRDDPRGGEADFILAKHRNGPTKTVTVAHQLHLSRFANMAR

CHO = test: cytotoxicity in TLR9-MyD88 CHO cells, dose response, cytotoxicity control for TLR9-MyD88 binding inhibitor project, cell-based, luminescence (AID 588339); assay type: functional, hamster; conditions: Cricetulus griseus;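 note: CHO cells stably coexpressing TLR9 and MyD88 fusions from primary screen; compound exposure lasted 48 hours before viability readout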
[3] = Shn3 3'UTR reporter inhibitors, dose response, cell-based, Clone20 osteoblasts, firefly luciferase, cherry-picked (AID 624132); assay type: functional;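 note: firefly luciferase luminescence from reporter carrying the Shn3 3'UTR in osteoblasts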
[4] = molecular target: ATP-binding cassette sub-family B member 6 (Homo sapiens, UniProt Q9NP58); test: ABCB6 transporter inhibitors, dose response, K562-ABCB6 cells, flow cytometry, cherry pick 1 (AID 623955); assay type: functional; conditions: read-out: EC50_MICROM
INS1 = test: beta cell apoptosis inhibitors, cytokine rescue, dose response, luminescence, retest (AID 449756); assay type: functional, cell-based; conditions: Rattus norvegicus;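 note: cell death triggered by IL-1 beta plus TNF-alpha plus IFN-gamma mixture; protective hits raise ATP signal compared with cytokine alone wells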
[5] = test system: Streptococcus sp. 'group A'; test: growth inhibition of control SK(-) GAS strain, dose response, counter-screen for streptokinase expression inhibitor project, luminescence, kanamycin, BacTiterGlo, confirmation (AID 1900); assay type: functional, organism-based
Streptokinase A = molecular target: T2, Streptokinase A (Streptococcus pyogenes serotype M1, UniProt P10520); test: S. pyogenes streptokinase expression inhibitors, potency, dose response, plasminogen activation absorbance, OD405 (AID 1914); assay type: functional, Streptococcus pyogenes M1 GAS;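 note: secreted streptokinase activity via plasminogen activation per viability signal from cell pellet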
T2 sequence (P10520 whole entry): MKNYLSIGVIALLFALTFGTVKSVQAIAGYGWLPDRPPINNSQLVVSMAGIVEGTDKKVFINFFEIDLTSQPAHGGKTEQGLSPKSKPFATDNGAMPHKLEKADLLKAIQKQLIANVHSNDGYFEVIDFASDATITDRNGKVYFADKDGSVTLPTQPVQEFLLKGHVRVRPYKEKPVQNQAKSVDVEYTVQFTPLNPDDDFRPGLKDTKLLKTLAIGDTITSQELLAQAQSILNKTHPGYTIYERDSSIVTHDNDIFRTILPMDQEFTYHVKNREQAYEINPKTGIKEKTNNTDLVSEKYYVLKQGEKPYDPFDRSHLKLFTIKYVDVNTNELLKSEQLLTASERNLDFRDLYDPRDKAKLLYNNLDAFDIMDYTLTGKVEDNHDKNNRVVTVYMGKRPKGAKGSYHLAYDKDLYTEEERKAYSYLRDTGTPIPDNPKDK

Beta Lactamase = Beta Lactamase (Pseudomonas aeruginosa, UniProt Q932Y6); test: beta-lactamase reporter inhibitor potency, dose response, artefact control for TLR9-MyD88 binding inhibitor project, BLA reporter cells, FRET fluorescence (AID 588341); assay type: cell-based;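 note: cell based assay in CHO-K1 cells stably expressing beta-lactamase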
Streptococcus = test: Group A Streptococcus viability loss, dose response, counter-screen for streptokinase expression inhibitor project, luminescence, BacTiterGlo (AID 1915); assay type: functional, organism-based;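 note: potency for reduction of bacterial viability or growth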
Protein RecA = molecular target: T3, Protein RecA (Mycobacterium tuberculosis, UniProt P9WHJ3); test: Fluorescence Cell-Free Homogeneous Dose Retest to Identify Inhibitors of RecA-Intein Splicing Activity. [Related pubchem assays (depositor defined):AID2097, AID2223, AID489010, AID492950]; assay type: functional
T3 sequence (P9WHJ3 whole entry): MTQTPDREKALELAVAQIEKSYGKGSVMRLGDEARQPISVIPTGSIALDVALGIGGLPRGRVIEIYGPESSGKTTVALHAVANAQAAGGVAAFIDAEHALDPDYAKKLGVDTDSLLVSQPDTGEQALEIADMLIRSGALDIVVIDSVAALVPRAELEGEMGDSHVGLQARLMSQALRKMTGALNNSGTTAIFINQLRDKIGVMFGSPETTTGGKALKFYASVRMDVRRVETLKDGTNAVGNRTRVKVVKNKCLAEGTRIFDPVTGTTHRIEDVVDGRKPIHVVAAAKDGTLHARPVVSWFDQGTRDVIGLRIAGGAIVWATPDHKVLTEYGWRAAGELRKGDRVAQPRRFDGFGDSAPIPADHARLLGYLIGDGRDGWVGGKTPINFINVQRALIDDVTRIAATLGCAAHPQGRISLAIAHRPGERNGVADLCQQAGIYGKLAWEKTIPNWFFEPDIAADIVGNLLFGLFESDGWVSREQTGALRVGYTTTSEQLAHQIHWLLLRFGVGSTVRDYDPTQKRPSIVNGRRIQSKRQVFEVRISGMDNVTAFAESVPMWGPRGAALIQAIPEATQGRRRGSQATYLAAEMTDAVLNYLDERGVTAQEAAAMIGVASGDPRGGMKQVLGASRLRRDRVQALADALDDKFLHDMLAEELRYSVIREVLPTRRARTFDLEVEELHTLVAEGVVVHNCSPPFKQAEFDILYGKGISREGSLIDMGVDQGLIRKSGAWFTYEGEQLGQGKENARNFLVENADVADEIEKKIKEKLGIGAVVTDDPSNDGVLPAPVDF

[6] = HepG2 cell cytotoxicity, dose response, cytotoxicity control for Shn3 inhibitor project, CellTiter-Glo, cherry-picked (AID 624134); assay type: functional, cell-based
[7] = molecular target: Heat shock protein HSP 90-alpha (Homo sapiens, UniProt P07900); assay type: functional, organism-based
Interleukin-8 [8] = molecular target: T4, Interleukin-8 (Homo sapiens, UniProt P10145); test: Dose Response confirmation of uHTS small molecule hits for cystic fibrosis induced NFkb Inhibitors in a TNFa-induced IL8 counterscreen.; assay type: functional; conditions: read-out: IC50_Mean
T4 sequence (P10145 whole entry): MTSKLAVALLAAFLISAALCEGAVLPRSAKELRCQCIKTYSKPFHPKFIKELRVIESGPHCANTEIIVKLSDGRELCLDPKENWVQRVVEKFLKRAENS

Interleukin-8 [9] = molecular target: T4, Interleukin-8; test: Dose Response confirmation of uHTS small molecule hits for cystic fibrosis induced NFkb Inhibitors in a PAF-induced IL8 counterscreen.; assay type: functional; conditions: read-out: IC50_Mean
[10] = molecular target: Adenosylmethionine-8-amino-7-oxononanoate aminotransferase (Mycobacterium tuberculosis, UniProt P9WQ81); test: Mycobacterium tuberculosis BioA enzyme inhibitor Measured in Biochemical System Using Plate Reader - 2163-02_Inhibitor_Dose_CherryPick_Activity.; assay type: functional, Mycobacterium tuberculosis UT205
[11] = molecular target: T5, Polyadenylate-binding protein 1 (Homo sapiens, UniProt P11940); test: PABP1 MLLE–PAM2 binding inhibitor potency, dose response, biochemical, fluorescence polarization, FITC-PAM2 peptide (AID 602259); assay type: functional; conditions: read-out: IC50_Mean
[12] = molecular target: T5, Polyadenylate-binding protein 1; test: PABP1 MLLE–PAM2 interaction inhibitors, dose response, miRNA deadenylation inhibitor project, biochemical, fluorescence polarization, Cy5-PAM2 peptide, secondary (AID 602260); assay type: functional; conditions: read-out: IC50_Mean
[13] = molecular target: DNA (cytosine-5)-methyltransferase 1 (Homo sapiens, UniProt P26358); test: DNMT1 methyltransferase inhibitors, confirmation, biochemical, fluorescent molecular beacon (AID 602386); assay type: functional
[14] = molecular target: T6, Diacylglycerol lipase-beta (Mus musculus, UniProt Q91WC9); test: Late stage assay provider results from the probe development effort to identify inhibitors of diacylglycerol lipase, beta (DAGLb): LCMS-based biochemical dose response assay.; assay type: functional
[15] = molecular target: T6, Diacylglycerol lipase-beta; test: Late stage assay provider results from the probe development effort to identify inhibitors of diacylglycerol lipase, beta (DAGLb): fluorescence-based dose-response biochemical gel-based competitive Activity-Based Protein Profiling (ABPP) inhibition of DAGLb in vitro.; assay type: functional
[16] = molecular target: T7, Apoptotic protease-activating factor 1 (Homo sapiens, UniProt O14727); test: SAR analysis of small molecule Activators of Apaf-1 in a Fluorescent assay.; assay type: functional; conditions: read-out: EC50_Mean;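 note: caspase-3 cleavage of fluorogenic Rh110 DEVD substrate downstream of apoptosome activation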
T7 sequence (O14727 whole entry): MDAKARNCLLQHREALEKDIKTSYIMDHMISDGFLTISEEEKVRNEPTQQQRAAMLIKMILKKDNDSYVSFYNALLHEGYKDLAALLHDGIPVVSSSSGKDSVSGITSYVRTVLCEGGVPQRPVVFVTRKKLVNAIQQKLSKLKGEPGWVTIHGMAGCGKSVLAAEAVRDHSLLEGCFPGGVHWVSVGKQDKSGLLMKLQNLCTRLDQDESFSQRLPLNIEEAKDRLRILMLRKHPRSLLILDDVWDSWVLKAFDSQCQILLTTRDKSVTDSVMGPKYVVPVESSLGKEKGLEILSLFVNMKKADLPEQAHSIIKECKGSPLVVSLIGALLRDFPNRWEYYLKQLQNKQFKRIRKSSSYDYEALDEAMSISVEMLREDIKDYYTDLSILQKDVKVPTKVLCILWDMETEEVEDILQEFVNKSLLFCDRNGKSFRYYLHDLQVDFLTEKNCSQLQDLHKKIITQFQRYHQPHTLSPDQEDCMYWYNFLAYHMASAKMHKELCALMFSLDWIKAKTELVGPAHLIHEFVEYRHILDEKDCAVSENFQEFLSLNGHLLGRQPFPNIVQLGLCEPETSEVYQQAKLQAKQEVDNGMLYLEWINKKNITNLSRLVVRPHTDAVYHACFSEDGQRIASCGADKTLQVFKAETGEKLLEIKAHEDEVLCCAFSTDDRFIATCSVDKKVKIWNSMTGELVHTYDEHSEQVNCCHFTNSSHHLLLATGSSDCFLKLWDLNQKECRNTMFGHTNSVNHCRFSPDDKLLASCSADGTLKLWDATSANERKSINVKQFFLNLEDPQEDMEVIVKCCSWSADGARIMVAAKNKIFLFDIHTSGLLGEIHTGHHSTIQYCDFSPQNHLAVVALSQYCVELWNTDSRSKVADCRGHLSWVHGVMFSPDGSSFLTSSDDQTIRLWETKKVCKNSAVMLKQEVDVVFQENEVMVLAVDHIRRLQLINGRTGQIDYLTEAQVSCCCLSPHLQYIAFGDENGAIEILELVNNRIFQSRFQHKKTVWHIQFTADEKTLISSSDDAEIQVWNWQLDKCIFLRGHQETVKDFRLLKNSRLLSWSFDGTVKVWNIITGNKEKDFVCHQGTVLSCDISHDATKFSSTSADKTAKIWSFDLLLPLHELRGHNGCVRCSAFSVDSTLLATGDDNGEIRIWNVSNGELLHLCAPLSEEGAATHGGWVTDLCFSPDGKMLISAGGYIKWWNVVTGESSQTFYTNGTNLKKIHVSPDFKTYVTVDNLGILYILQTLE

[17] = ARNT/TACC3 interaction disruptors, potency, confirmation, biochemical, AlphaScreen, cherry-picked samples (AID 651703); assay type: functional, Homo sapiens;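 note: His-tagged ARNT PAS-B domain paired with GST-TACC3 E629A dimer coactivator fragment; potency of inhibitors that break up the complex and lower AlphaScreen signal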

T6 sequence (Q91WC9 whole entry): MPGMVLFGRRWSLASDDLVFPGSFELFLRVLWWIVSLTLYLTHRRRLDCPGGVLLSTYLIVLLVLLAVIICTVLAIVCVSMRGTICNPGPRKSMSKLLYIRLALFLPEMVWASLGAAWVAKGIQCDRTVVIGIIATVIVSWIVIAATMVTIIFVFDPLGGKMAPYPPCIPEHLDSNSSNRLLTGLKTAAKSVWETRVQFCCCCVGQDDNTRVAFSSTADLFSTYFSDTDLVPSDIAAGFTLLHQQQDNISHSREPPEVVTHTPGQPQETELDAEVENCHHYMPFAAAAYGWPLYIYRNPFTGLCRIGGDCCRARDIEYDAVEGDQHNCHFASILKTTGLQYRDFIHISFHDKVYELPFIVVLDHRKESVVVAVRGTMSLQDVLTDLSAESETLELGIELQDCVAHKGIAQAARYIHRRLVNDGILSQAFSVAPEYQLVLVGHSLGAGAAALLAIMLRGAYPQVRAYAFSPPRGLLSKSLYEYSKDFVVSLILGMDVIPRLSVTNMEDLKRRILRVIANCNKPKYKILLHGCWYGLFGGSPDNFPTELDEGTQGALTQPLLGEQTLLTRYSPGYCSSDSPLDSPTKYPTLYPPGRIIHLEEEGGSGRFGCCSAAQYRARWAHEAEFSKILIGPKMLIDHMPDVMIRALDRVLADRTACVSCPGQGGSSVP
T5 sequence (P11940 whole entry): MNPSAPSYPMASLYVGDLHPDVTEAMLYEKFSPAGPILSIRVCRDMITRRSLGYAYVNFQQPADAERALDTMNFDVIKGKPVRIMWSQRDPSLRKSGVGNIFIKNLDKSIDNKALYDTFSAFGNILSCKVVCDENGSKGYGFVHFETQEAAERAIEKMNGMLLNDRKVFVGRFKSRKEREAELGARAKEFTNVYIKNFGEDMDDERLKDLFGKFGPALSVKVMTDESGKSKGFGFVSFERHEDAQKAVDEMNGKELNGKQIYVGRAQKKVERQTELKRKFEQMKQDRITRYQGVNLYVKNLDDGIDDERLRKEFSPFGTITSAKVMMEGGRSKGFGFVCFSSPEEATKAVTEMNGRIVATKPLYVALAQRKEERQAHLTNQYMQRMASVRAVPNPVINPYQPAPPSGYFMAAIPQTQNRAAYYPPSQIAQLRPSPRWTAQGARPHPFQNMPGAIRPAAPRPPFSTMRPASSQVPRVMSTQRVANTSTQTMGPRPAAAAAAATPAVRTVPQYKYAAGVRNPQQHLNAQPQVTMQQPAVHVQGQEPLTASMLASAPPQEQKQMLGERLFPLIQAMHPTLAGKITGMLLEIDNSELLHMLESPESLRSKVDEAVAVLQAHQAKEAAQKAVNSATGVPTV
Sequence of DNA (cytosine-5)-methyltransferase 1 (P26358 whole entry): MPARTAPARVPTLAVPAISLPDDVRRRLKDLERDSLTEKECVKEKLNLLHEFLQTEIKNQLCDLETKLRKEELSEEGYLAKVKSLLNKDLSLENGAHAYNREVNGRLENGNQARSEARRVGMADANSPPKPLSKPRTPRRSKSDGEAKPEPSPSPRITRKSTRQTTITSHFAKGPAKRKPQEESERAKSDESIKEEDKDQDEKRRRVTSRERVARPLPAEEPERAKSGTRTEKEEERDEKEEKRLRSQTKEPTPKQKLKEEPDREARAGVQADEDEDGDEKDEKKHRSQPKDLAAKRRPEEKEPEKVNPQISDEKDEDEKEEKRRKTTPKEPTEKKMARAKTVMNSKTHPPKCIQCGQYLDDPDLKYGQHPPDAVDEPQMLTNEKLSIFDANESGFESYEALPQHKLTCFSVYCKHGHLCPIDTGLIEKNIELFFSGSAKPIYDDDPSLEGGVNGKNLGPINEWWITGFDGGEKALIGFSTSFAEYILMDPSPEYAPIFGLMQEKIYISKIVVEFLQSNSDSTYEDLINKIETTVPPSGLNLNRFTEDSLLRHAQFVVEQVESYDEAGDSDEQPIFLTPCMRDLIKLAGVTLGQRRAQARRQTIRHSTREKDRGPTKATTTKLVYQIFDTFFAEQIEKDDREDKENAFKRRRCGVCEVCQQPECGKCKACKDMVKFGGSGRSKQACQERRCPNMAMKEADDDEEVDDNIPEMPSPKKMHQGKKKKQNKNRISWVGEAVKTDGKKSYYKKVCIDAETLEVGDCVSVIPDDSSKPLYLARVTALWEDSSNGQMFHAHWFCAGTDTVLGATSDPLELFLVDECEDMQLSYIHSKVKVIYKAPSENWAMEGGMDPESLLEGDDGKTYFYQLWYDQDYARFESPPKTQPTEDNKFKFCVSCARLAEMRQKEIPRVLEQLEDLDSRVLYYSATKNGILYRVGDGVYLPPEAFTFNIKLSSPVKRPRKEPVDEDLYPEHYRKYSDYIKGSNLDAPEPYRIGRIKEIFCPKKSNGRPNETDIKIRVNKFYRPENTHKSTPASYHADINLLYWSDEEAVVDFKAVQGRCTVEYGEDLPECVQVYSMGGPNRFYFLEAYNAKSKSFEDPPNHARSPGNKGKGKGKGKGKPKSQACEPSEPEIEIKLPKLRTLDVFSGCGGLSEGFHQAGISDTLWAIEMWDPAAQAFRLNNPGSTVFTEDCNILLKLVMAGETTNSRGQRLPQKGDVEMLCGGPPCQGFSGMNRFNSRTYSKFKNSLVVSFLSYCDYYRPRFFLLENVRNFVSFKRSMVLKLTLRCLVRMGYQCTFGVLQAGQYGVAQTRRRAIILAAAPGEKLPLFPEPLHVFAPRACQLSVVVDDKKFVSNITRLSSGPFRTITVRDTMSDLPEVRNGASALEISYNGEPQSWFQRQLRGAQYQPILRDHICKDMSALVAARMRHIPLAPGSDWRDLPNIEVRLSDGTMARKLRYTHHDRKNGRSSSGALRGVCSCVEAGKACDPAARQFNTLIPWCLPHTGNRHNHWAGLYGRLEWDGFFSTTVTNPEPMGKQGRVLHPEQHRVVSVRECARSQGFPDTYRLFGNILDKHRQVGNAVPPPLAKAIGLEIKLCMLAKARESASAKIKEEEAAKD
Sequence of Adenosylmethionine-8-amino-7-oxononanoate aminotransferase (P9WQ81 whole entry): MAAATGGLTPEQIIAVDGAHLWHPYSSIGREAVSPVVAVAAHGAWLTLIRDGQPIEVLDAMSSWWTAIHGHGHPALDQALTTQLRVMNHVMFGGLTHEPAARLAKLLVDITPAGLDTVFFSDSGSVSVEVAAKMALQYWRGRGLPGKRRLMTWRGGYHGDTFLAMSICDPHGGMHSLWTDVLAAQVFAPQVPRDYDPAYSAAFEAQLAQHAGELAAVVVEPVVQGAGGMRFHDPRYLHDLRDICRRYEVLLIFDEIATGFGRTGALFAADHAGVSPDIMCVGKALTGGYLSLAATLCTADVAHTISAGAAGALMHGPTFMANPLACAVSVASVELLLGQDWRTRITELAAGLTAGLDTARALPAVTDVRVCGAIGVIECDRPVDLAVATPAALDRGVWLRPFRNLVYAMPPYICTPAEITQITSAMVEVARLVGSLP
Sequence of Beta Lactamase (Q932Y6 whole entry): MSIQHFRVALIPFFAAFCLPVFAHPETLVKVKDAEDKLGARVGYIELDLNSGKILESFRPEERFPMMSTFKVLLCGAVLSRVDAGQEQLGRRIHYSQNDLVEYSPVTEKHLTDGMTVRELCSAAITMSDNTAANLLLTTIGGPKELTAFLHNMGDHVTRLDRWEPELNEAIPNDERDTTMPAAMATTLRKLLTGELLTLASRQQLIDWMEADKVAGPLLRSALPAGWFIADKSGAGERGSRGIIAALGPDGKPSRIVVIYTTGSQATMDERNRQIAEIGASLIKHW
Sequence of ATP-binding cassette sub-family B member 6 (Q9NP58 whole entry): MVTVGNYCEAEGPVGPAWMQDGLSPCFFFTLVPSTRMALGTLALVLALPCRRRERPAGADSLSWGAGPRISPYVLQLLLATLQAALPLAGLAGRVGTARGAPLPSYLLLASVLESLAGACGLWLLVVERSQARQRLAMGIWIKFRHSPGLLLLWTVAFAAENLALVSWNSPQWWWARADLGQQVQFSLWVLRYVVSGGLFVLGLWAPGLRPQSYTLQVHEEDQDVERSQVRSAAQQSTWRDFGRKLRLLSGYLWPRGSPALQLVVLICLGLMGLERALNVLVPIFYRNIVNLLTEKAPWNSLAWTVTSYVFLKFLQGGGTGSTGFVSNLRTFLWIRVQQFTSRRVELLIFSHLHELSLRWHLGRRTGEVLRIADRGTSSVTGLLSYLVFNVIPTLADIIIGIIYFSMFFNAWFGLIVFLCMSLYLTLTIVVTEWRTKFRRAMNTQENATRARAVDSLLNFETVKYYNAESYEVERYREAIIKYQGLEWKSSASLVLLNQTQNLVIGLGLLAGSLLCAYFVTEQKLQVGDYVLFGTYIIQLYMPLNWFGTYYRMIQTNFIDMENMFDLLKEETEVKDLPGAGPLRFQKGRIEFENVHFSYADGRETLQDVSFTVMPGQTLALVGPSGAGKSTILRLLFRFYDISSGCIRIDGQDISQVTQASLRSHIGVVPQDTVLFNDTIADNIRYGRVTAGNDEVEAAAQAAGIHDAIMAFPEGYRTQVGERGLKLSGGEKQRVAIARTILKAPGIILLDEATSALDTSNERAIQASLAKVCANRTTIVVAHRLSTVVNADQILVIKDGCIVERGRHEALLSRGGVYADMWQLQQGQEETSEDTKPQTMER

## COC(=O)c1ccc(NC(=O)c2nc(S(=O)(=O)Cc3cccc(C)c3)ncc2Cl)cc1
[1]
  AC50: 5.82 µM (active)
[2]
  AC50: 0.389 µM (active)
CHO
  IC50: 2.53 µM (active)
[3]
  AC50: 1.35 µM (active)
[4]
  EC50: 44.2 µM (active)
INS1
  AC50: 7.28 µM (active)
[5]
  EC50: 0.941 µM (active)
Streptokinase A
  EC50: > 150 µM (not active)
Beta Lactamase
  IC50: 10.7 µM (inactive)
Streptococcus
  EC50: 3.07 µM (active)
Protein RecA
  EC50: 0.228 µM (active)
[6]
  AC50: 33.5 µM (active)
[7]
  AC50: 1.26 µM (active)

## CC1=C(C(=O)OCc2ccc3c(c2)OCO3)C(c2ccc(O)c([N+](=O)[O-])c2)NC(=O)N1 (stereo not drawn)
Interleukin-8 [8]
  IC50: 39.8 µM (inactive)
Interleukin-8 [9]
  IC50: 63.7 µM (inactive)

## O=C(N[C@H]1CC[C@@H](CCn2cc(-c3cccnc3)nn2)O[C@H]1CO)c1ccccc1F
[10]
  AC50: 12.3 µM (active)

## O=C1c2sccc2-c2cccc3cccc1c23
[11]
  IC50: 25.5 µM (inactive)
[12]
  IC50: > 66 µM (inactive)
[13]
  IC50: 1.02 µM (active)

## O=C(N1CCCCC1Cc1ccccc1)n1cc(-c2ccc(-c3ccccc3)cc2)nn1 (stereo not drawn)
[14]
  IC50: 0.1 µM (active)
[15]
  IC50: 0.043 µM (active)

## O=C(O)CC(CCc1ccccc1)NC(=O)c1cccs1 (stereo not drawn)
[16]
  EC50: > 100 µM (inactive)

## COC(=O)C(CC#Cc1ccc2c(c1)[C@]1(C(=O)N2)[C@H](c2ccc(OCCO)cc2)N2[C@H](c3ccccc3)[C@H](c3ccccc3)OC(=O)[C@H]2[C@@H]1C(=O)N1CCCCCCC1)C(=O)OC
[17]
  AC50: 126 µM (active)
